Values after ≈ are worked out from the molar mass of the structure shown. Active and inactive are the calls of the source. No cut-off for these calls is given here.
Columns and labels:
[1] = target: T1, Bile acid receptor (Rattus norvegicus) (UniProt Q62735); assay: Agonist activity at FXR in rat primary hepatocytes assessed as increase in SHP mRNA level incubated for 24 hrs by qRT-PCR analysis relative to tropifexor; format: cell-based
T1 sequence (whole entry): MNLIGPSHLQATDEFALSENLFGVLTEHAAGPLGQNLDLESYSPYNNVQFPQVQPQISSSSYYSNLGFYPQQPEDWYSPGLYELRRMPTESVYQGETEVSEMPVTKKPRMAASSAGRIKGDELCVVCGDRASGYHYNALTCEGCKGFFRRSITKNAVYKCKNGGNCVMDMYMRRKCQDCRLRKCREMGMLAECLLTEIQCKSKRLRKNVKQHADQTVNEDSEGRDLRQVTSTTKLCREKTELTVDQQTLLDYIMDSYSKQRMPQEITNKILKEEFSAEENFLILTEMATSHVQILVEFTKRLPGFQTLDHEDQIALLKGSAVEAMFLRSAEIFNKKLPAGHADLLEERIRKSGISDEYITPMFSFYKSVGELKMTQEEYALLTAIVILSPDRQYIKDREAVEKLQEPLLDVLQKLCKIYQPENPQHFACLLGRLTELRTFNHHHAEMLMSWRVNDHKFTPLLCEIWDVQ

[2] = Cmax in Wistar rat at 300 mg/kg, po; format: ADME, organism-based; set-up: dose 300 mg/kg, route oral; conditions: in vivo
[3] = Oral bioavailability in Wistar rat at 30 mg/kg; format: ADME, organism-based; conditions: in vivo
[4] = target: T2, Retinoic acid receptor RXR-alpha (Homo sapiens, UniProt P19793); assay: Agonist activity at GAL4-fused RXR LBD (unknown origin) expressed in HEK293T cells incubated for 24 by BrightGlo reagent based assay; format: cell-based
T2 sequence (P19793 whole entry): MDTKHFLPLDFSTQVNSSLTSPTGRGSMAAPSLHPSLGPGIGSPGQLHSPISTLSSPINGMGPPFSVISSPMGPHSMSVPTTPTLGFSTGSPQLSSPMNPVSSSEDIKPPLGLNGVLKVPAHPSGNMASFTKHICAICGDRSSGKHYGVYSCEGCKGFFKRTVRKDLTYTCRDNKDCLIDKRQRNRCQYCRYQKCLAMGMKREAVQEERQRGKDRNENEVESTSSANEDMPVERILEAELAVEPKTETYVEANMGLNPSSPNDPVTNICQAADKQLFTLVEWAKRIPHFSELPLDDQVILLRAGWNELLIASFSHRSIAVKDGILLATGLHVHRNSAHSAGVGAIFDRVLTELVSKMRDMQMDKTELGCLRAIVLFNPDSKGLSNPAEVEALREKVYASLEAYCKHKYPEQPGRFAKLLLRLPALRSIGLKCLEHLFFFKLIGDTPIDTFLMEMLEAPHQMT

Mus musculus [5] = species on record: Mus musculus; assay: Anti Steato-hepatitic activity in C57BL/6J mouse STAM model assessed as change in Cyp8b1 gene level in liver; format: functional, organism-based
Mus musculus [6] = assay: Anti Steato-hepatitic activity in STZ/HFD induced oral dosed C57BL/6J mouse STAM model assessed as reduction in hepatocellular ballooning administered via oral gavage once daily for 3 weeks and measured on 9 week by H and E staining based assay; format: functional, organism-based
Progesterone receptor = target: T3, Progesterone receptor (Homo sapiens, UniProt P06401); assay: Agonist activity at Progesterone receptor (unknown origin) incubated for 2 hrs by TR-FRET assay
T3 sequence (P06401 whole entry): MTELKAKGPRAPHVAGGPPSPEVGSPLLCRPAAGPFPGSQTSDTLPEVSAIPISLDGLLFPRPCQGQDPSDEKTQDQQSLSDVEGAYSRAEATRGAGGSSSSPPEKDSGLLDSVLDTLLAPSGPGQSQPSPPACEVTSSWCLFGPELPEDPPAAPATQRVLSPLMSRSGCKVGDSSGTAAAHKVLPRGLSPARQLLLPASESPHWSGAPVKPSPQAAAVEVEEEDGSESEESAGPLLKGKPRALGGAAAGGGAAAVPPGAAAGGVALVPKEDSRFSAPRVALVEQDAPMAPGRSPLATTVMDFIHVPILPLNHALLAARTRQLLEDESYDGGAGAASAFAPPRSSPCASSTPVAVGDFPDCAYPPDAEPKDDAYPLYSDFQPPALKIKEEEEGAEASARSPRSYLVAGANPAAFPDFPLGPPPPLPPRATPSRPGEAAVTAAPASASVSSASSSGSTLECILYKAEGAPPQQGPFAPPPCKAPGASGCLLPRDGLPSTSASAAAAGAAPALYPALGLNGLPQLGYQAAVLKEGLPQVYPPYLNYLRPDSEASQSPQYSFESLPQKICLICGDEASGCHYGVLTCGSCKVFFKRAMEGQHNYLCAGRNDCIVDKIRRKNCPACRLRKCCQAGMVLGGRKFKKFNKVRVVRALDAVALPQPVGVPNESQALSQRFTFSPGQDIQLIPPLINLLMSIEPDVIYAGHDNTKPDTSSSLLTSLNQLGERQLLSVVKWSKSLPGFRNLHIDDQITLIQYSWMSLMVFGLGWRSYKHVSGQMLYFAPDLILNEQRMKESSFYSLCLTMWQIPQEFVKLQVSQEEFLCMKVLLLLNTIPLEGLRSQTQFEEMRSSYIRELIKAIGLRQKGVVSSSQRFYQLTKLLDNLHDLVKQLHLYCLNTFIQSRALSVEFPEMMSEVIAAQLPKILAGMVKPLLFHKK

[7] = Oral bioavailability in Wistar rat at 10 mg/kg in presence of PEG 300/D5W(3:1); format: ADME, organism-based; conditions: in vivo
[8] = AUC in Wistar rat brain at 10 mg/kg, po; format: ADME, organism-based
[9] = Permeability of the compound by PAMPA; format: ADME
[10] = Oral bioavailability in mouse at 10 mg/kg; format: ADME, organism-based; conditions: in vivo
[11] = AUC in Wistar rat at 300 mg/kg, po; format: ADME, organism-based; conditions: in vivo
[12] = Oral bioavailability in Wistar rat at 10 mg/kg in presence of 0.5% CMC/0.5% Tween 80; format: ADME, organism-based; conditions: in vivo
Rattus norvegicus = assay: In-vivo agonist activity at FXR in orally dosed Han Wistar rat assessed as upregulation of SHP mRNA level in ileum administered via oral gavage once daily for 14 days measured post last dose by qRT-PCR analysis; format: functional, organism-based
Mus musculus [13] = assay: Anti Steato-hepatitic activity in STZ/HFD induced C57BL/6J mouse STAM model assessed as reduction in fibrosis at 3 to 30 mg/kg, po administered via oral gavage once daily for 3 weeks and measured on 9 week by Picro-Sirius Red staining based assay; format: functional, organism-based
[14] = Solubility of compound in pH 6.5 FASSIF at 2 mg measured for 5 to 60 mins by UV spectroscopic method; format: physicochemical
[15] = AUC in Wistar rat at 10 mg/kg, po; format: ADME, organism-based; conditions: in vivo
[16] = Metabolic stability in human liver microsomes assessed as hepatic extraction ratio; format: ADME, Microsome; conditions: read-out: ERH

Cn1nc(C(=O)N(Cc2ccccc2)Cc2ccc(C(=O)O)cc2)c2c1-c1cc(Cl)ccc1OC2 [NIDUFEXOR]
Activity [1]: 65%
Cmax [2]: 141 µM
bioavailability [3]: 52%
EC50 [4]: > 10 µM
Activity (Mus musculus [5]): Active
Activity (Mus musculus [6]): Dose-dependent effect
EC50 (Progesterone receptor): > 30 µM
bioavailability [7]: 51%
AUC [8]: 1.11 µM·h
permeability [9]: 94%
bioavailability [10]: 115%
AUC [11]: 1040 µM·h
bioavailability [12]: 10%
Activity (Rattus norvegicus): Dose-dependent effect
Activity (Mus musculus [13]): Active
solubility [14]: 3 µM (≈ 1.46 µg/mL)
AUC [15]: 25.4 µM·h
hepatic extraction ratio [16]: < 0.21

— ChEMBL document CHEMBL4402557, “Nidufexor (LMB763), a Novel FXR Modulator for the Treatment of Nonalcoholic Steatohepatitis” (J Med Chem, 2020)
